Data on 5 compounds can be found in publication PMC10553834, “Differentiating the roles of Mycobacterium tuberculosis substrate binding proteins, FecB and FecB2, in iron uptake” (PLOS Pathogens, 2023).

The target in one assay is Mtb FecB (Rv3044) (Mycobacterium tuberculosis, UniProt O53291). Kind of assay: biochemical. It counts as binding.
A further assay has as its target Mtb FecB2 (Rv0265c) (Mycobacterium tuberculosis, UniProt L7N6B2). It is filed as binding. The conditions noted are these: FecB2-His (with His tag); 100 nM protein, 50 mM Tris-HCl pH 7.4, 150 mM NaCl, emission 335 nm.

By Kd is commonly meant the concentration at which binding is half-saturated. High values mean lower affinity, low ones higher affinity.

“Also recorded” adds a separate entry of the source. Read-outs that look alike come from different tables or passages of the source.

Sequence of Mtb FecB (Rv3044) (O53291 entry or part of it): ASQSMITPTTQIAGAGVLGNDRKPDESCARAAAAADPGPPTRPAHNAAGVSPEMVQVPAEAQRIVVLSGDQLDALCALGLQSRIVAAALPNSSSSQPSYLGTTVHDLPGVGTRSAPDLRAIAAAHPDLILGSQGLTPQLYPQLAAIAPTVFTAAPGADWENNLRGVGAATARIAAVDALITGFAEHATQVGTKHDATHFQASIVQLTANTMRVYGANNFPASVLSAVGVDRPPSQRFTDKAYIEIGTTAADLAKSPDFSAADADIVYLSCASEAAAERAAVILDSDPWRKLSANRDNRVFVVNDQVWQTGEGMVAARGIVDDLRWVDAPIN
Sequence of Mtb FecB2 (Rv0265c) (L7N6B2 39-330 limits assumed): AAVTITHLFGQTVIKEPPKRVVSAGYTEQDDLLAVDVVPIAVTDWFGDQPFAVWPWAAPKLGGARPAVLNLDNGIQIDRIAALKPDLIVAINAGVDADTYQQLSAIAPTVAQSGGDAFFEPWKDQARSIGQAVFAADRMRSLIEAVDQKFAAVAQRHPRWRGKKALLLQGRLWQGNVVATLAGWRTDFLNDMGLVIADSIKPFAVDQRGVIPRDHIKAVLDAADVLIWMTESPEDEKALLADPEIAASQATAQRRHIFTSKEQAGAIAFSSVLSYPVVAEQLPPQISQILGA

As to ferric-pyoverdines, at Mtb FecB (Rv3044), the “Fold weaker affinity to FecB compared to Fe-cMB” value (shortened to “Fold weaker affinity to FecB”) is reported as “at least 40 fold” and the equilibrium dissociation constant (Kd) is over 45 µM.
For ferric-carboxymycobactin [Fe-cMB], the Kd result on Mtb FecB2 (Rv0265c) is “could not be determined; also recorded: too weak to be determined”; at Mtb FecB (Rv3044) it was 0.55 µM; at Mtb FecB (Rv3044) (FecB without His tag (tagless), 100 nM protein, 50 mM Tris-HCl pH 7.4, 150 mM NaCl, emission 335 nm), 0.68 µM; on Mtb FecB (Rv3044) (FecB-His (with His tag, native), 100 nM protein, 50 mM Tris-HCl pH 7.4, 150 mM NaCl, emission 335 nm), 0.63 ± 0.12 µM.
Turning to ferric-mycobactin J [Fe-MBJ], the “Fold weaker affinity to FecB” value at Mtb FecB (Rv3044) was about 20 fold. Besides, the figures for the dissociation constant (Kd) on Mtb FecB (Rv3044) and at Mtb FecB (Rv3044) (listed as Fe-mycobactin J) were about 11 µM and 11.3 ± 0.1 µM, respectively.
For `O=C(N[C@H]1COC(=O)[C@@H](NC(=O)c2cccc(O)c2O)COC(=O)[C@@H](NC(=O)c2cccc(O)c2O)COC1=O)c1cccc(O)c1O` [ferric-enterobactin], at Mtb FecB (Rv3044), the “Fold weaker affinity to FecB” value is reported as “at least 40 fold” and binding was put at a Kd of 26.1 µM.
Consider carboxymycobactin [apo-cMB], for which, on Mtb FecB (Rv3044), the “Fold weaker affinity to FecB” value is listed as about 4 fold and the Kd stood at 2.9 ± 0.1 µM.
